Experimental data published in patent US20120190615A1, “METHODS AND COMPOSITIONS FOR INDUCING WEIGHT LOSS” (Sanford-Burnham Medical Research Institute, priority 2011, published 2012).
Several values for one entry are separate records, joined by “and”; a condition that tells them apart may be missing. Equal values may be shown once.

Tests used:
C3H10T1/2 cells = test: Oxygen consumption / uncoupled respiration of cultured mesenchymal stem cells; format: cell-based, mouse
Text: To determine whether the increased respiration was uncoupled from ATP synthesis, oligomycin-insensitive respiration was first assayed as a measure of uncoupled respiration. Oligomycin inhibits F1 ATP synthetase to suppress only oxidative phosphorylation-associated respiration.

[1] = system: primary brown preadipocytes; test: Differentiation of primary brown preadipocytes (Oil Red O); format: cell-based, mice
Text: To assess differentiation of primary brown adipocytes, iBAT preadipocytes were isolated from 1-day-old mice and then differentiated in the presence of OX. Differentiation was confirmed by Oil Red O staining which visualizes lipid accumulation (FIG. 7). […] Taken together. OX activates a full program of brown fat adipogenesis by suppressing adipogenic inhibitors, including BAT regulators, elevating mitochondrial biogenesis and oxygen consumption, and inducing uncoupled respiration.
To investigate whether lack of OXR1 impaired BAT differentiation potential, primary brown preadipocytes from OXR1 knockout mice were isolated and differentiated. Generation of wild-type primary brown preadipocyte cell lines was derived from newborn wild-type mice as described previously by Klein et al. (Bioessays, 24: 382-388, 2002), which is hereby incorporated by reference in its entirety. Brown preadipocytes isolated from C57BL-6 mice served as positive control. All cell lines were maintained in Dulbecco's modified […] medium (DMEM), high glucose, supplemented with 10% FBS at 37° C. in a 5% CO2 environment. To induce adipogenesis, the cells were treated for 3 days with either BMP7 or 100 nM OX, at which time they were confluent. Cells were then incubated in adipogenic medium containing 0.125 mM indomethaein, […] dexamethazone, and […] 3-isobutyl-1-methyxanthine (IBMX) supplemented by 20 nM insulin as described by Tseng et al., (Nature, 454: 1000-1004, 2008) which is hereby incorporated by reference in its entirety.

[2] = system: Mouse embryonic fibroblasts (MEFs); test: Differentiation of mouse embryonic fibroblasts to a BAT lineage; format: cell-based; details: 3-day treatment, 7-10 days without induction cocktail, Oil Red O
Text: Mouse embryonic fibroblasts (MEFs) resemble mesenchymal cells in their ability to differentiate into various mesenchymal lineages. To determine whether OX triggers commitment of embryonic fibroblasts to a BAT lineage, MEFs isolated at […] were exposed to a differentiation protocol involving a 3-day treatment with Orexin A and BMP-7, and differentiation in the absence of the standard induction cocktail of IBMX, thiazolidone, and indomethacin for a further 7-10 days.

BMP signaling = BMP signaling in C3H10T1/2 cells (qPCR of Bmpr1a and BMP-7, Smad 1/5/8 phosphorylation); format: cell-based, mouse; details: 100 nM OX 3 days
Text: Bone morphogenic proteins, which are members of the TGF-β superfamily, control critical steps in development and differentiation and are important regulators of both WAT and BAT adipogenesis. BMP-2 and -4 induce white fat adipogenesis, while BMP-7 enhances brown fat traits. BMP-7 functions through interacting with BMP receptors, which mediate Smad 1/5/8 phosphorylation, to stimulate brown fat adipogenesis.

[3] = system: WtB6 mice fed a high fat diet; test: High fat diet six weeks with two weekly OX injections, obesity resistance (Example 12); format: in vivo
Text: To confirm that OX prevents obesity under conditions of caloric excess, a high fat diet (HFD) was fed to WtB6 mice for six weeks. Mice received two weekly OX or PBS injections (n=6/group). Food intake and body weight of both groups were monitored weekly. […] OX-injected animals, however, resisted weight gain, which became apparent during the second wk of therapy (FIG. 28B). At the conclusion of the treatment period, OX-treated mice were visibly lean (FIG. 28C, D) and weighed 7 g±1.2 g less than the control group (FIG. 28B, Table 3). […] Total visceral fat was reduced by more than 60%. Visceral fat in the OX-injected group was noticeably darker in color relative to control tissue (FIG. 28E, F).
Further, the respiratory quotient of OX-injected group was 10% lower than the vehicle injected group, indicating higher fat oxidation capacity (FIG. 28J). […] To determine whether systemic OX injection induces BAT activity, mice with OX (10 mg/kg) or PBS were compared, using relative UCP-1 expression as an indicator for BAT activity 24-hours post-injection.

obese wild type B6 mice = test: Reversal of diet-induced obesity, OX twice weekly for 4 wks after 17 weeks HFD (Example 13); format: in vivo
Protocol: To confirm that systemic OX therapy induces weight loss in obese mice, wild type B6 mice were fed a HFD for 17 weeks and treated either with OX (10 mg/kg) or PBS vehicle twice weekly for 4 wks (n=6 mice/group). […] The OX-injected group began losing body weight from week 1. At the end of the 4-week treatment regimen, the OX-injected population appeared considerably leaner than the vehicle-injected controls, and the former had lost about 10 g body weight, as shown in FIG. 29A. […] Enhancement of energy expenditure was not due to any increase in physical activity (FIG. 29C).
To evaluate changes associated with weight loss, OX-treated and untreated mice were compared at autopsy. Untreated mice fed a high fat diet had developed fatty livers, which were visibly paler in color than those from OX-treated mice (FIG. 29E).

[4] = HFD six weeks, two weekly injections
[5] = end of 4-week treatment, OX 10 mg/kg twice weekly

Q: Which “oxygen consumption, higher” value (C3H10T1/2 cells; basal conditions) does the source give for “orexin-A (EPLPDCCRQKTCSCRLYELLHGAGNHAAGILTL) [OX, human orexin A, cat; No. 24470, Anaspec]” here?
A: 15 fold

Q: And the “oxygen consumption of treated cells in the presence of oligomycin” value (C3H10T1/2 cells; oligomycin)?
A: efficiently consumed oxygen

Q: And the “share of OX-induced respiration uncoupled from ATP synthesis” value (C3H10T1/2 cells; oligomycin-insensitive respiration)?
A: More than half

Q: What about the “differentiation of wild-type preadipocytes based on lipid accumulation” value ([1]; 3 days BMP7 or 100 nM OX, then adipogenic medium) of the same substance?
A: enhanced differentiation

Q: And the “adipogenesis of iBAT preadipocytes from 1-day-old mice” value ([1]; differentiated in the presence of OX)?
A: robust adipogenesis within 7 days

Q: And the “differentiation of brown preadipocytes from OXR1-null mice” value ([1]; in the presence of OX)?
A: little differentiation capacity

Q: What about the “phenotype of treated MEFs” value [2] of the same substance?
A: adopted a BAT phenotype

Q: What about the “BMP-receptor 1A and BMP-7 mRNA expression” value (BMP signaling) of the same substance?
A: induced

Q: And the “% body fat” value [3, 4]?
A: 15% and 15 ± 1.1%

Q: And the Fat mass [3, 4]?
A: 3.4 ± 0.4

Q: What about the Fluid content [3, 4] of the same substance?
A: 7.7 ± 1.5

Q: What about the Lean mass [3, 4] of the same substance?
A: 18.7 ± 1.1

Q: What about the “Lean mass-fat mass ratio” value [3, 4] of the same substance?
A: 5.5 ± 0.3

Q: What about the “iBAT UCP1 expression” value ([3]; OX 10 mg/kg, 24-hours post-injection) of the same substance?
A: higher UCP1 levels than controls

Q: And the “body weight less than the control group” value ([3]; at the conclusion of the treatment period)?
A: 7 g

Q: And the “oxygen consumed, more than the control group” value ([3]; calorimetric measurements)?
A: 15%

Q: And the “respiratory quotient, lower than the vehicle injected group” value ([3]; calorimetric measurements)?
A: 10%

Q: What about the “reduction of total visceral fat” value ([3]; end of the study) of the same substance?
A: more than 60%

Q: What about the “reduction of whole body fat mass” value ([3]; end of the study) of the same substance?
A: 50%

Q: What about the physical activity ([3]; infrared monitoring, two weeks) of the same substance?
A: not more physically active

Q: What about the “increase in twenty-four hour energy expenditure” value ([3]; relative to control mice) of the same substance?
A: 19%

Q: What about the “cumulative food intake over the 6-week period” value ([3]; versus vehicle) of the same substance?
A: not significantly different

Q: What about the “food intake during the first week” value ([3]; versus vehicle) of the same substance?
A: ate significantly more

Q: And the “lean mass or fluid content” value ([3]; versus vehicle)?
A: not significantly different

Q: What about the “amount of visceral fat” value (obese wild type B6 mice; 4 weeks treatment) of the same substance?
A: considerably decreased

Q: What about the food intake (obese wild type B6 mice; between groups) of the same substance?
A: did not differ significantly

Q: What about the “lean mass or fluid content” value (obese wild type B6 mice; between groups) of the same substance?
A: not significantly different

Q: And the “energy expended, more than the control group” value (obese wild type B6 mice; calorimetric studies)?
A: 17%

Q: And the “oxygen consumed, more than the control group” value (obese wild type B6 mice; calorimetric studies)?
A: 13%

Q: And the body weight lost (obese wild type B6 mice; end of 4-week treatment)?
A: about 10 g

Q: What about the “% body fat” value (obese wild type B6 mice; [5]) of the same substance?
A: 27% and 27 ± 1.4%

Q: And the Fat mass (obese wild type B6 mice; [5])?
A: 7.9 ± 0.6

Q: What about the Lean mass (obese wild type B6 mice; [5]) of the same substance?
A: 20.4 ± 1.3

Q: And the “Lean mass fat mass ratio” value (obese wild type B6 mice; [5])?
A: 2.58 ± 0.2

Q: What about the Body weight (obese wild type B6 mice; end of 4-week treatment, OX 10 mg/kg twice weekly, in g (unit assumed)) of the same substance?
A: 29.2 ± 0.8

Q: What about the “reduction of whole body fat mass” value (obese wild type B6 mice; end of the study) of the same substance?
A: 55%

Q: What about the “triglycerides within the liver” value (obese wild type B6 mice; high fat diet, at autopsy) of the same substance?
A: 91 ± 7 µmol/g

Q: And the iBAT mitochondrial content/activity (obese wild type B6 mice; mitoTracker-stained iBAT sections, relative to controls)?
A: elevated mitochondrial content/activity
